Data published in publication PMC13014312, “Fluorescence Discrimination of Cancer from Inflammation by Selective Targeting Folate Receptor α” (Chemical & Biomedical Imaging, 2025).
Like-named read-outs stand apart in the source and are kept apart here.

Tests used:
folate receptor β (FRβ) [1] = target: T1, folate receptor β (FRβ) (Homo sapiens, UniProt P14207); assay: 3H-folic acid competition radioligand assay on […] cells transfected with FRβ; type: cell-based
T1 construct: gene FOLR2

folate receptor α (FRα) = target: T2, folate receptor α (FRα) (Homo sapiens, UniProt P15328); assay: 3H-folic acid competition radioligand assay on […] cells transfected with FRα; type: cell-based
T2 construct: gene FOLR1
T2 sequence (P15328 25-234): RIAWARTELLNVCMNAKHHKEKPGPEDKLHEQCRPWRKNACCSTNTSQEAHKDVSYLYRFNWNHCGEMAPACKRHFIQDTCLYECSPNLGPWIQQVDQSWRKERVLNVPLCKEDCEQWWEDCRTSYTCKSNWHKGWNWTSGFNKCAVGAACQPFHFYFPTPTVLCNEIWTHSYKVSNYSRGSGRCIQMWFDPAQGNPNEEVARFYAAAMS

folate receptor β (FRβ) [2] = target: T1, folate receptor β (FRβ); assay: 3H-folic acid competition radioligand assay on […] cells transfected with FRβ

T1 sequence (P14207 17-230): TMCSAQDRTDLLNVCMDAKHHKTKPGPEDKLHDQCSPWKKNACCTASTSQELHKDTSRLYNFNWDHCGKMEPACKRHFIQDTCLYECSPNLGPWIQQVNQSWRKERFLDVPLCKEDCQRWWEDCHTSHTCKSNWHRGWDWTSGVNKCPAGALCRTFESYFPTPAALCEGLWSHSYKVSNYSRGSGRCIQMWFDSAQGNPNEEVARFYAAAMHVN

Row | Kd (folate receptor β (FRβ) [1]) | Kd (folate receptor α (FRα)) | SMILES | Kd (folate receptor β (FRβ) [2])
1 | 487 nM | 61.7 nM | CC1(C)C(=CC=C2CCCC(C=CC3=[N+](CCCCS(=O)(=O)[O-])c4ccc(S(=O)(=O)O)cc4C3(C)C)=C2Oc2ccc(C[C@H](NC(=O)c3ccc(CCc4c[nH]c5[nH]c(N)nc(=O)c45)cc3)C(=O)O)cc2)N(CCCCS(=O)(=O)O)c2ccc(S(=O)(=O)O)cc21 [NY-07] | –
2 | – | – | Nc1nc(=O)c2nc(CNc3ccc(C(=O)N[C@@H](CCC(=O)O)C(=O)O)cc3)cnc2[nH]1 [folate, folic acid] | Assessment of K d of folate, OTL38, and NY-07 to FRβ.
